# Laboratory results from PubChem BioAssay AID1996.
# Settings: buffer; pH 7.4; 200.0 µM
row,Compound,solubility kinetic [µg/mL]
1,Cc1ccccc1OCC(=O)OCC(=O)NCc1ccco1,> 45.5
2,COc1cc(/C=C/[N+](=O)[O-])ccc1OC(=O)c1cc2ccccc2oc1=O,5.7
3,CC(C)(C)NC(=O)NCc1cccnc1,29.4
4,NC(=O)CC(NSc1ccccc1[N+](=O)[O-])C(=O)O (stereo not given),36.9
5,O=C(CCNC(=O)c1ccco1)Nc1nc2ccccc2s1,4.5
6,COc1ccc(NC(=O)Cc2ccc(Cl)cc2Cl)cn1,33.8
7,CCn1c(SCC(=O)OC)nnc1-c1ccc(C)cc1,> 43.7
8,Cc1ccnc(NC2(C(F)(F)F)N=C3SCCN3C2=O)c1 (stereo not given),> 47.4
9,CCC(C)[C@H](NC(=O)N1CCCCCC1)C(=O)O (stereo not given in full),> 38.5
10,CCN(c1ccccc1)S(=O)(=O)c1ccc2c(c1)OCCO2,26.3
11,COC(=O)c1cc(NC(=O)CN(C)C2CCS(=O)(=O)C2)cc(C(=O)OC)c1.O=C(O)C(=O)O (stereo not given),> 73.3
12,Fc1ccc(-n2cc(-c3ccccc3)[n+]3c2SCC3)cc1.[Br-],> 56.6
13,COc1ccc(OCC(O)CNC(=O)Nc2ccccc2)cc1 (stereo not given),26.9
14,CC1CN(C/C(=N\O)C23CC4CC(CC(C4)C2)C3)CC(C)O1 (stereo not given),> 46
15,Cc1ccc(S(=O)(=O)N(C)CC(=O)OCC(=O)NCCc2ccc(S(N)(=O)=O)cc2)cc1,> 72.5
16,O=S(=O)(NCCN1CCCC1)c1ccc(C(F)(F)F)cc1,> 48.4
17,CCOC(=O)c1cc(-c2csc(-c3ccc(C(F)(F)F)cc3)n2)on1,< 0.4
18,Nc1ccn([C@H]2C[C@H](O)[C@@H](CO)O2)c(=O)n1.O,> 36.8
19,O=[N+]([O-])c1ccc2c(c1)[nH]c(=S)n2-c1ccccc1,2
20,COc1cc(CNCCc2ccc3c(c2)OCO3)ccc1O.Cl,> 50.7
21,O=C(c1ccccc1)N1CCN(c2ncccn2)CC1,> 40.2
22,Cc1ccc(NC(=O)CN2C(=O)c3ccccc3C2=O)cc1,2

row,Compound,solubility kinetic [µg/mL]
1,O=C(O)C1CSC2(c3ccc(F)cc3)CCC(=O)N12 (stereo not given),> 42.2
2,CCc1ccc(N2CC(C(=O)OC)CC2=O)cc1 (stereo not given),> 37.1
3,CN1c2ccccc2C(=O)C(=C2SCCCS2)S1(=O)=O,27
4,COc1ccc(NC(=O)O/N=C/c2ccccc2)cc1,5
5,Clc1ccc2ccc3cccnc3c2n1,> 32.2
6,Cl.NCCNc1ccc([N+](=O)[O-])cc1,> 32.6
7,O=c1[nH]cnc2c1ncn2[C@@H]1O[C@H](CO)[C@@H](O)[C@H]1O,> 40.2
8,CN(C(=O)c1ccc(F)cc1)c1ccc(OCC(=O)Nc2ccccc2C(=O)O)cc1,> 63.4
9,COc1ccc(NC(=O)c2ccc(NC(=O)c3ccncc3)cc2)cc1,0.8
10,O=c1cc(-c2ccncc2)oc2c1ccc1ccccc12,0.7
11,Cc1cccc(NC(=O)/C(C#N)=C/c2ccc(Cl)cc2)n1,0.6
12,CN(C(=O)c1ccc2c(c1)CCO2)C(C)(C)C,23.9
13,Cn1ccnc1COc1ccc(/C=N/O)cc1,> 34.7
14,Nc1ccc(Oc2ccc(F)cc2)nc1,27.6
15,Cc1ccc(OCC(=O)Nc2ccc(Cl)cc2)c([N+](=O)[O-])n1,8.7
16,CCS(=O)(=O)N1CCN=C1SCc1ccccc1,> 42.7
17,COc1ccccc1NC(=O)CN(Cc1ccco1)C(=O)c1ccc(N2CCCC2=O)cc1,64.9
18,Cc1ccc2c(c1)C(=C(C#N)C#N)C(=O)N2CCN1CCOCC1,48.3
19,O=C(C[n+]1ccccc1)Nc1ccc(Cl)c([N+](=O)[O-])c1.[Cl-],> 49.2
20,O=c1nc(N2CCCC2)nc(N2CCCC2)[nH]1,34.3
21,COc1ccccc1NC(=O)Nc1nc2ccc(S(N)(=O)=O)cc2s1,1.6
22,COc1ccc(NC(=S)N(CCO)Cc2ccccc2)cc1,44.7

row,Compound,solubility kinetic [µg/mL]
1,CC(C)OP(=O)(OC(C)C)C(NC(=O)c1ccccc1)C(N)=O (stereo not given),> 51.3
2,CCn1c2ccccc2c2cc(NC(=O)C(=O)N3CCOCC3)ccc21,10.1
3,O=C(NCC1CCCO1)c1cc(C(=O)C2CCCCC2)c[nH]1 (stereo not given),> 45.7
4,CCC(C)[C@H](NC(=O)Nc1ccc(S(N)(=O)=O)cc1)C(=O)OC (stereo not given in full),> 51.5
5,Cc1ccc(NC(=O)C2CCCN2C(=O)c2cccs2)c(C)c1 (stereo not given),24
6,O=C(OCc1nc(-c2ccccc2Cl)no1)c1ccco1,19
7,CC(=O)c1cc(C(C)=O)c(C)[n+](C)c1C.[O-][Cl+3]([O-])([O-])[O-],41.5
8,NCC(=O)Nc1ccc(Br)cc1,27.6
9,Cc1ccc(N2C(=O)C3CCCN3C2=S)c(C)c1 (stereo not given),> 39.1
10,CC1CC(Nc2ccccc2)c2ccccc2N1C(=O)c1ccco1 (stereo not given),13.2
11,O=C(CCC(=O)N1CCN(c2ccccc2F)CC1)c1ccc(Cl)s1,19.5
12,NC(=O)COC(=O)CCCSc1nc2ccccc2s1,> 46.6
13,N#CC1=C(N)OC2=C(C(=O)CCC2)C1c1cc2c(cc1Cl)OCO2 (stereo not given),17
14,COc1ccc(CCNC(=O)C(=O)N2CCCC2)cc1OC,39.7
15,CC(C)c1ccc(C(=O)NC(=S)Nc2ccc3[nH]c(=O)[nH]c3c2)cc1,0.5
16,COC(=O)CSc1nc2ccccc2c(=O)n1Cc1ccccc1,0.7
17,CCOc1ccccc1NC(=O)N1CCCc2ccccc21,< 0.3
18,CC(=O)Nc1cccc(NC(=O)COc2ccccc2C)c1,> 44.8
19,CCN(CC(=O)NCc1ccccn1)S(=O)(=O)c1ccc(OC)cc1,> 54.5
20,CCSc1nc2cc(S(=O)(=O)N3CCOCC3)ccc2o1,> 49.3
21,CCCOc1ccc(C(=O)Nc2ccc3c(c2)OCO3)cc1,1
22,O=C(NCc1ccc2c(c1)OCO2)c1cc([N+](=O)[O-])ccc1N1CCOCC1,> 57.8

row,Compound,solubility kinetic [µg/mL]
1,Cc1ccccc1Nc1c(C)c(C)nc2ncnn12,> 38
2,CC1(C)NC(=O)N(CCCCOc2ccc(Cl)cc2C=O)C1=O,47.6
3,C=CCn1ccc(O)c(Cc2ccc(Cl)cc2)c1=O,38.6
4,CCOc1cc(/C=C2/C(=O)ON=C2C)ccc1O,27.2
5,O=C(Cc1ccccc1F)Nc1ccccc1-c1ccccc1,7.1
6,O=C1Nc2ccccc2C(c2ccccc2)=NC1O (stereo not given),> 37.8
7,CCOc1ccc(C2NC(=S)NC3=C2CCc2ccccc23)cc1 (stereo not given),10.9
8,COc1ccc(NC(=O)c2ccc(S(=O)(=O)C(F)F)cc2)c(OC)c1,13.1
9,O=C(NCc1ccncc1)NC12CC3CC(CC(C3)C1)C2,41.3
10,COCCCN=CC1=C(O)CC(c2ccccc2)CC1=O (stereo not given),> 43.1
11,Cc1ccc(-c2csc3ncn(CC(N)=O)c(=O)c23)cc1C,> 47
12,Cc1ccc(C(=O)C2CCN(S(=O)(=O)c3c(C)noc3C)CC2)cc1,13.6
13,CCOc1ccccc1OCC(=O)Nc1cc(C)on1,> 41.4
14,S=C1NCN(Cc2ccco2)CN1Cc1ccco1,40.3
15,Cc1ccccc1C(=O)OCC(=O)NCc1ccco1,> 41
16,CC(=O)Nc1nnc(SCC(=O)NC2CCCC2)s1,> 45.1
17,O=C1CC(c2ccccc2)CC(=O)C1=CN1CCCC1 (stereo not given),> 40.4
18,NC(=O)CC1C(=O)N(c2ccccc2)C(=S)N1NC(=O)c1ccccc1 (stereo not given),> 55.3
19,CCCCNC(=O)COC(=O)c1ccc(F)cc1Cl,> 43.2
